Data as given in ChEMBL document CHEMBL1201862, “PubChem BioAssay data set” (2004).
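Cells were grown in 96-well plates and exposed to each compound for 48 hours at five concentrations; endpoints were interpolated linearly between bracketing concentrations, or set to the highest concentration if not reached. Here, GI50 denotes the concentration required for 50% inhibition of growth.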 Calls of active or inactive are those of the source. Cut-off read from the data, not from the text of the source: active = GI50 up to about 1.1 µM and inactive = higher. Residues, ends and D or L forms follow the SMILES beside them. *: point of attachment. X38 = O=C(c1ccc(-c2ccc(Cl)cc2Cl)o1)*

How the values were obtained:
Experiment in all cases: NCI tumour cell line growth inhibition, 48 h
[1] = tested on: MDA-N
[2] = tested on: HOP-62
[3] = tested on: RXF 393
[4] = tested on: SR
[5] = tested on: NCI-H23
[6] = tested on: OVCAR-5
[7] = tested on: SNB-75
[8] = tested on: ACHN
[9] = tested on: NCI-H460
[10] = tested on: IGROV-1
[11] = tested on: NCI-H226
[12] = tested on: A498
[13] = tested on: KM12
[14] = tested on: SK-MEL-28
[15] = tested on: UACC-62
[16] = tested on: PC-3
[17] = tested on: SF-268
[18] = tested on: Hs-578T
[19] = tested on: RPMI-8226

Measured: GI50

COc1cc(NCc2ccc3nc(OC)c(OC)nc3c2)cc(OC)c1OC
inactive: [1] > 100 µM | [2] > 100 µM | [3] > 100 µM | [4] 89.9 µM | [5] > 100 µM | [6] > 100 µM | [7] 54.8 µM | [8] > 100 µM | [9] > 100 µM | [10] > 100 µM | [11] > 100 µM | [12] > 100 µM | [13] > 100 µM | [14] > 100 µM | [15] > 100 µM | [16] 89.1 µM | [17] > 100 µM

COc1ccc(-c2nc(-c3ccc(OC)cc3)n(-c3ccccc3)n2)cc1
inactive: [18] > 100 µM | [1] > 100 µM | [2] > 100 µM | [3] 32.8 µM | [5] 39.4 µM | [6] > 100 µM | [7] > 100 µM | [8] > 100 µM | [9] > 100 µM | [10] > 100 µM | [11] > 100 µM | [12] 45.7 µM | [13] 40.2 µM | [14] > 100 µM | [15] 86.5 µM | [16] > 100 µM | [17] > 100 µM

COC(=O)c1cc(C)ccc1C1CN=NC12Cc1cccc(C)c1C2=O (stereo not given)
inactive: [18] 28.6 µM | [1] 34.8 µM | [2] 35.6 µM | [3] 25 µM | [4] 26.2 µM | [5] 42.7 µM | [6] 17.9 µM | [19] 16.8 µM | [7] 77.3 µM | [8] 28.2 µM | [9] 26.2 µM | [10] 37.7 µM | [11] 33.1 µM | [12] 47.6 µM | [13] 26.2 µM | [14] 27.3 µM | [17] 49.7 µM

CC(C)(O)c1cc2c(cc1C(C)(C)O)-c1ccccc1-2
inactive: [18] 29.6 µM | [3] 71.9 µM | [4] > 100 µM | [6] > 100 µM | [19] > 100 µM | [7] 29.2 µM | [8] 85.3 µM | [9] > 100 µM | [10] > 100 µM | [11] > 100 µM | [12] > 100 µM | [13] > 100 µM | [14] > 100 µM | [15] 36.2 µM | [16] > 100 µM | [17] 43.8 µM

Nc1nc(N)c(-c2ccc(Cl)cc2)c(CCC(=O)Nc2cccc(C(F)(F)F)c2)n1
inactive: [2] > 100 µM | [3] > 100 µM | [4] > 100 µM | [5] > 100 µM | [6] > 100 µM | [7] > 100 µM | [8] > 100 µM | [9] > 100 µM | [10] > 100 µM | [11] > 100 µM | [12] > 100 µM | [13] > 100 µM | [14] > 100 µM | [15] > 100 µM | [17] > 100 µM

CCN(CC)/N=N/c1c(C(N)=O)n[nH]c1C
inactive: [18] 45.9 µM | [2] 31.2 µM | [3] > 100 µM | [5] 36.9 µM | [19] 44.2 µM | [7] 23.2 µM | [8] 32.8 µM | [9] 31.2 µM | [10] > 100 µM | [11] 48.9 µM | [12] > 100 µM | [13] 50 µM | [14] > 100 µM | [15] 35 µM | [16] > 100 µM | [17] 39.3 µM

COc1cc2oc3c(c(=O)c2c(O)c1/C=C/C(C)C)C(C=C(C)C)Oc1cc(O)ccc1-3 (stereo not given)
inactive: [18] 19 µM | [1] 16.9 µM | [5] 15.7 µM | [6] 17 µM | [19] 14.7 µM | [7] 15.3 µM | [8] 15.4 µM | [9] 14.5 µM | [10] 13.5 µM | [11] 17.9 µM | [12] 24.7 µM | [13] 17.2 µM | [14] 16.5 µM | [15] 17.2 µM | [16] 15.6 µM | [17] 18.7 µM

COC(=O)C(CC(C)C)NC(=O)C(Cc1ccccc1)NC(=O)C1CCCN1C(=O)C(CO)NC(=O)c1ccc(-c2ccc(Cl)cc2Cl)o1 (stereo not given) (X38-SPFL-OMe; configuration not given here)
inactive: [18] 35.5 µM | [1] 35.5 µM | [3] 17.8 µM | [5] 27.7 µM | [6] 21.9 µM | [19] 17.1 µM | [7] 25.7 µM | [8] 26.5 µM | [9] 17.3 µM | [11] 19.1 µM | [12] 24.5 µM | [13] 34 µM | [14] 52.1 µM | [15] 23.8 µM | [16] 31.6 µM | [17] 40.3 µM
